The values below come from patent US11702418B2, “SOS1 inhibitors” (priority 2019, dated 2023).

Each structure is given as a SMILES string. Where a name gives a salt, the structure may show the parent alone. Read-outs that look alike come from different tables or passages of the source.

In test [1] the target is recombinant human SOS1 polypeptide (amino acids 560-1049) (Homo sapiens (Human), UniProt Q07889). As to the kind of experiment: biochemical. It is filed as binding. As to conditions: read-out: Ki, Inhibition of Labeled Tracer Binding to SOS1.
recombinant human SOS1 polypeptide (amino acids 560-1049), sequence (Q07889 560-1049): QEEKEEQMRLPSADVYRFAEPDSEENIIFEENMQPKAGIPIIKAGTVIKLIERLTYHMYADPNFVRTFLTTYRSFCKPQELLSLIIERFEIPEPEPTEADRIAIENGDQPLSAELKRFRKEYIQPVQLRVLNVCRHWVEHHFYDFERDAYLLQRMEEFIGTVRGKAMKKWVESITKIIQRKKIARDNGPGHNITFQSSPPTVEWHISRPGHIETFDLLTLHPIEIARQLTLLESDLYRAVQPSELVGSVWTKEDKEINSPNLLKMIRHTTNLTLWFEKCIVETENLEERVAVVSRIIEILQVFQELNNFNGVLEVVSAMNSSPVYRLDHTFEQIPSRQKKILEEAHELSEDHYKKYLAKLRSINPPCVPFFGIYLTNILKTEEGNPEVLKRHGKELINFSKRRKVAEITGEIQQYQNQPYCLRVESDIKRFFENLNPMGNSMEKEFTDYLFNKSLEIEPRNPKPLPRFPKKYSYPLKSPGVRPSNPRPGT
Another test has as its system pERK in MKN1 cells. Nature of the test: cells. It is filed as cell-based. The following applies: Homo sapiens.
Where [2] appears, read: HTRF displacement, Cy5 labelled tracer, Morrison equation for competitive binding.
Where [3] appears, read: MKN-1, pERK inhibition, In-Cell Western, MKN1 or H358 cells (Table 24 does not say which), 0.5-1 hour incubation, read-out: IC50.

Protocol for pERK in MKN1 cells: The cells were incubated for approximately 0.5-1 hour with the compounds solubilized in DMSO at 37° C. Cells were immediately fixed by adding 50 μL of 4% formaldehyde to all wells in a fume hood and the plates were incubated for 20 minutes at room temperature. The formaldehyde was discarded from the plates and 150 μL of ice-cold methanol was added to permeabilize the cells for 10 minutes at −20° C. The methanol was discarded from each of the plates and any liquid remaining in the plate by tapping the plate against paper towels. […] The plates were incubated overnight at 4° C. on a shaker.
On Assay day 2, the primary antibody solution was removed. […] The secondary antibody solution as removed and each plate was washed with PBST 3× times. Any liquid remaining was discarded and the plate was imaged using the Licor Odyssey machine according to the manufacturer's instruction, using a set focus length at 3 mm and both 800 nm and 700 nm filters. The GAPDH normalized scan values for each well were divided by the average of vehicle wells to get the % of pERK inhibition. The IC50 values were then calculated with the Graph pad Prism software.

`Cc1c(C#N)cc(F)cc1[C@@H](C)Nc1nnc(C)c2cnc(N3CC4CC(C3)O4)cc12` [Example 12-106]: the Ki (in general, the dissociation constant of the complex between target and ligand, obtained from inhibition or displacement) in test [1] (setting [2]) was determined as 0.0111 µM. In addition, the IC50 (commonly the concentration that gives 50% inhibition) in the test on pERK in MKN1 cells (setting [3]) worked out at 0.114 µM.

`Cc1c([C@@H](C)Nc2nnc(C)c3cnc(N4C[C@@H]5C[C@H]4CO5)cc23)cccc1C(F)(F)F` [Example 12-8]: the Ki in test [1] (setting [2]) is 0.00114 µM. Moreover, the IC50 with pERK in MKN1 cells (setting [3]) stood at 0.038 µM.

Regarding `Cc1c([C@@H](C)Nc2nnc(C)c3ccc(N4CCC5(CCCN5C)CC4)cc23)cccc1C(F)(F)F` [Example 10-19, (R)-4-methyl-N-(1-(2-methyl-3-(trifluoromethyl)phenyl)ethyl)-7-(1-methyl-1,8-diazaspiro[4.5]decan-8-yl)phthalazin-1-amine], the Ki in test [1] (setting [2]) amounted to 0.00028 µM. Further, the IC50 with pERK in MKN1 cells (setting [3]) is 0.069 µM.

For `Cc1nnc(N[C@H](C)c2cc(N)cc(C(F)(F)F)n2)c2cc(N3CC4CC(C3)O4)ncc12` [Example 16-13, N-((R)-1-(4-amino-6-(trifluoromethyl)pyridin-2-yl)ethyl)-7-(6-oxa-3-azabicyclo[3.1.1]heptan-3-yl)-4-methylpyrido[3,4-d]pyridazin-1-amine], the Ki in test [1] (setting [2]) turned out to be 0.0258 µM. In addition, in the test on pERK in MKN1 cells (setting [3]), the IC50 is over 10 µM.

As for `Cc1c([C@@H](C)Nc2nnc(C)c3ccc(OC4CCNCC4)cc23)cccc1C(F)(F)F` [Example 7-2, (R)-4-methyl-N-(1-(2-methyl-3-(trifluoromethyl)phenyl)ethyl)-7-(piperidin-4-yloxy)phthalazin-1-amine], the Ki in test [1] (setting [2]) stood at 0.00033 µM. The IC50 with pERK in MKN1 cells (setting [3]) was 0.073 µM.

As for `Cc1nnc(N[C@H](C)c2cccc(F)c2F)c2cc(N3CCN4CCOC[C@@H]4C3)ncc12` [Example 12-75], the Ki in test [1] (setting [2]) came out at 0.014 µM. In addition, the IC50 with pERK in MKN1 cells (setting [3]) worked out at 0.087 µM.

On to `Cc1c(C#N)cccc1[C@@H](C)Nc1nnc(C)c2ccc(N3CCC(N(C)C)CC3)cc12` [Example 10-57, (R)-3-(1-((7-(4-(dimethylamino)piperidin-1-yl)-4-methylphthalazin-1-yl)amino)ethyl)-2-methylbenzonitrile Formate salt], for which the Ki in test [1] came to 0.00075 µM. Moreover, the IC50 in the test on pERK in MKN1 cells (MKN-1) was determined as 0.046 µM.

As to `Cc1c([C@@H](C)Nc2nnc(C)c3ccc(N4CCS(=O)(=O)CC4)cc23)cccc1C(F)(F)F` [Example 10-23, (R)-4-(1-methyl-4-((1-(2-methyl-3-(trifluoromethyl)phenyl)ethyl)amino)phthalazin-6-yl)thiomorpholine 1,1-dioxide], the Ki in test [1] (setting [2]) was 0.00042 µM. Besides, in the test with pERK in MKN1 cells (setting [3]), the IC50 stood at 0.019 µM.

`Cc1c([C@@H](C)Nc2nnc(C)c3cnc(N4CC(C)(CO)C4)cc23)cccc1C(F)(F)F` [Example 12-39]: the Ki in test [1] (setting [2]) turned out to be 0.00091 µM. Besides, the IC50 in the test with pERK in MKN1 cells (setting [3]) stood at 0.075 µM.

Regarding `COc1cc2c(N[C@H](C)c3ccc(-c4ccccc4CN(C)C)s3)nnc(C(F)(F)F)c2cc1OC` [Example 5-4, (R)—N-(1-(5-(2-((dimethylamino)methyl)phenyl)thiophen-2-yl)ethyl)-6,7-dimethoxy-4-(trifluoromethyl)phthalazin-1-amine], the Ki in test [1] (setting [2]) came to 0.0479 µM. For the same molecule, the IC50 in the test on pERK in MKN1 cells (setting [3]) turned out to be 1.62 µM.

For `Cc1c(F)cccc1[C@@H](C)Nc1nnc(C)c2cnc(N3CC(C)(N(C)C)C3)cc12` [Example 12-82], the Ki in test [1] (setting [2]) came out at 0.0209 µM. Also, the IC50 in the test on pERK in MKN1 cells (setting [3]) turned out to be 0.33 µM.

Take `Cc1c([C@@H](C)Nc2nnc(C)c3ccc(N4CCNS(=O)(=O)CC4)cc23)cccc1C(F)(F)F` [Example 10-64, (R)-5-(1-methyl-4-((1-(2-methyl-3-(trifluoromethyl)phenyl)ethyl)amino)phthalazin-6-yl)-1,2,5-thiadiazepane 1,1-dioxide]: the Ki in test [1] (setting [2]) was found to be 0.0017 µM. Moreover, the IC50 in the test with pERK in MKN1 cells (setting [3]) was determined as 0.513 µM.

Regarding `Cc1c([C@@H](C)Nc2nnc(C)c3ccc(N4CC[C@H](N(C)C)C(F)(F)C4)cc23)cccc1C(F)(F)F` [Example 21-6, 7-((S)-4-(dimethylamino)-3,3-difluoropiperidin-1-yl)-4-methyl-N—((R)-1-(2-methyl-3-(trifluoromethyl)phenyl)ethyl)phthalazin-1-amine], in test [1] (setting [2]), the Ki was 0.00093 µM. The IC50 in the test on pERK in MKN1 cells (setting [3]) was 0.176 µM.

As to `Cc1c([C@@H](C)Nc2nnc(C)c3cnc(N4CC(N(C)C)C4)cc23)cccc1C(F)(F)F` [Example 12-20], the Ki in test [1] (setting [2]) stood at 0.0016 µM. The IC50 in the test with pERK in MKN1 cells (setting [3]) was 0.062 µM.

`Cc1c(C#N)cccc1[C@@H](C)Nc1nnc(C)c2cnc(N3CCC(C)(O)CC3)cc12` [Example 12-53]: the Ki in test [1] (setting [2]) came to 0.00083 µM. The IC50 in the test on pERK in MKN1 cells (setting [3]) was found to be 0.047 µM.

Regarding `Cc1c(C#N)cccc1[C@@H](C)Nc1nnc(C)c2cnc(N3CC4CC(C3)O4)cc12` [Example 12-23], the Ki in test [1] (setting [2]) worked out at 0.00105 µM. Further, the half-inhibitory concentration (IC50) in the test on pERK in MKN1 cells (setting [3]) is 0.046 µM.

With `Cc1c(C#N)cccc1[C@@H](C)Nc1nnc(C)c2cnc(N3CC4(CCN(C)C4)C3)cc12` [Example 12-51], the Ki in test [1] (setting [2]) turned out to be 0.00079 µM. For the same molecule, in the test with pERK in MKN1 cells (setting [3]), the IC50 came out at 0.048 µM.

In the case of `Cc1nnc(N[C@H](C)c2cccc(C(F)(F)C(C)(C)O)c2F)c2cc(N3CCN4CCOC[C@@H]4C3)ncc12` [Example 20-2, 1,1-difluoro-1-(2-fluoro-3-((R)-1-((7-((S)-hexahydropyrazino[2,1-c][1,4]oxazin-8(1H)-yl)-4-methylpyrido[3,4-d]pyridazin-1-yl)amino)ethyl)phenyl)-2-methylpropan-2-ol], in test [1] (setting [2]), the Ki was 0.00075 µM. The IC50 with pERK in MKN1 cells (setting [3]) was found to be 0.008 µM.

As for `Cc1c([C@@H](C)Nc2nnc(C)c3ccc(N4CCC5(CCN(C)C5=O)CC4)cc23)cccc1C(F)(F)F` [Example 10-40, (R)-2-methyl-8-(1-methyl-4-((1-(2-methyl-3-(trifluoromethyl)phenyl)ethyl)amino)phthalazin-6-yl)-2,8-diazaspiro[4.5]decan-1-one], the Ki in test [1] (setting [2]) was 0.00043 µM. Further, in the test on pERK in MKN1 cells (setting [3]), the IC50 amounted to 0.011 µM.

Turning to `Cc1nnc(N[C@H](C)c2cc(N)cc(C(F)(F)F)n2)c2cc(N3CC(C)(O)C3)ccc12` [Example 16-10, (R)-1-(4-((1-(4-amino-6-(trifluoromethyl)pyridin-2-yl)ethyl)amino)-1-methylphthalazin-6-yl)-3-methylazetidin-3-ol], the Ki in test [1] (setting [2]) worked out at 0.081 µM. In addition, in the test with pERK in MKN1 cells (setting [3]), the IC50 amounted to 0.919 µM.

With `Cc1nnc(N[C@H](C)c2cccc(C(F)(F)F)c2F)c2cc(N3C[C@H]4CC[C@@H]3CN4C)ncc12` [Example 12-60], in test [1] (setting [2]), the Ki came to 0.00025 µM. Besides, in the test with pERK in MKN1 cells (setting [3]), the IC50 is 0.024 µM.

For the molecule `Cc1c([C@@H](C)Nc2nnc(C)c3ccc(N4CCC(N5CCC5)CC4)cc23)cccc1C(F)(F)F` [Example 10-30, (R)-7-(4-(azetidin-1-yl)piperidin-1-yl)-4-methyl-N-(1-(2-methyl-3-(trifluoromethyl)phenyl)ethyl)phthalazin-1-amine hydrochloride salt], the Ki in test [1] was found to be 0.00041 µM. This molecule had an IC50 with pERK in MKN1 cells (MKN-1) of 0.048 µM.

As for `Cc1c([C@@H](C)Nc2nncc3ccc(N4CC5(CC(N(C)C)C5)C4)cc23)cccc1C(F)(F)F` [Example 1-32, (R)-7-(6-(dimethylamino)-2-azaspiro[3.3]heptan-2-yl)-N-(1-(2-methyl-3-(trifluoromethyl)phenyl)ethyl)phthalazin-1-amine], the Ki in test [1] (setting [2]) is 0.00042 µM. Moreover, the IC50 with pERK in MKN1 cells (setting [3]) was determined as 0.101 µM.

For the molecule `Cc1nnc(N[C@H](C)c2ccc(F)cc2F)c2cc(N3CC4CC(C3)O4)ncc12` [Example 12-58], in test [1] (setting [2]), the Ki was 0.0146 µM. Besides, in the test on pERK in MKN1 cells (setting [3]), the IC50 came to 0.038 µM.

For the molecule `Cc1c([C@@H](C)Nc2nnc(C)c3cnc(N4CC5(CCN(C)C5=O)C4)cc23)cccc1C(F)(F)F` [Example 12-16], the Ki in test [1] (setting [2]) is 0.00087 µM. Also, the IC50 with pERK in MKN1 cells (setting [3]) was determined as 0.011 µM.

As to `Cc1nnc(N[C@H](C)c2cccc(F)c2F)c2cc(N3CC(C)(N(C)C)C3)ncc12` [Example 12-83], in test [1] (setting [2]), the Ki stood at 0.0506 µM. In the test with pERK in MKN1 cells (setting [3]), the IC50 was 0.749 µM.

As for `Cc1nnc(N[C@H](C)c2cccc(C(F)(F)F)c2F)c2cc(N3CC(N(C)C)C3)ncc12` [Example 12-66], the Ki in test [1] (setting [2]) amounted to 0.0021 µM. Also, in the test with pERK in MKN1 cells (setting [3]), the IC50 came to 0.077 µM.

On to `Cc1c(C#N)cccc1[C@@H](C)Nc1nnc(C)c2cc(C(F)(F)F)c(N3CC(C)(N(C)C)C3)cc12` [Example 19-1, (R)-3-(1-((7-(3-(dimethylamino)-3-methylazetidin-1-yl)-4-methyl-6-(trifluoromethyl)phthalazin-1-yl)amino)ethyl)-2-methylbenzonitrile], for which the Ki in test [1] (setting [2]) is 0.00616 µM. The IC50 with pERK in MKN1 cells (setting [3]) was determined as 0.156 µM.

For `Cc1nnc(N[C@H](C)c2cccc(C(F)(F)F)c2F)c2cc(N3CCNCC3)ncc12` [Example 12-65], the Ki in test [1] (setting [2]) stood at 0.00072 µM. The IC50 in the test on pERK in MKN1 cells (setting [3]) was 0.016 µM.

As for `Cc1c(C#N)cccc1[C@@H](C)Nc1nnc(C)c2cnc(N3CCN(C)CC3)cc12` [Example 12-44], the Ki in test [1] (setting [2]) is 0.00116 µM. Moreover, the IC50 with pERK in MKN1 cells (setting [3]) was 0.038 µM.

As to `Cc1c([C@@H](C)Nc2nnc(C)c3cnc(OC4CN(C)C4)cc23)cccc1C(F)(F)F` [Example 12-12], in test [1] (setting [2]), the Ki turned out to be 0.0216 µM. For the same molecule, in the test with pERK in MKN1 cells (setting [3]), the IC50 stood at 0.249 µM.

On to `Cc1c([C@@H](C)Nc2nnc(C)c3ccc(OC[C@H]4CCCN4C)cc23)cccc1C(F)(F)F` [Example 10-25, 4-methyl-N-((R)-1-(2-methyl-3-(trifluoromethyl)phenyl)ethyl)-7-(((R)-1-methylpyrrolidin-2-yl)methoxy)phthalazin-1-amine hydrochloride salt], for which the Ki in test [1] is 0.00147 µM. In addition, in the test on pERK in MKN1 cells (MKN-1), the IC50 was 0.103 µM.

On to `Cc1nnc(N[C@H](C)c2cccc(C(F)F)c2F)c2cc(N3CC(C)(N(C)C)C3)ncc12` [Example 12-115], for which the Ki in test [1] (setting [2]) was 0.00166 µM. Moreover, the IC50 in the test with pERK in MKN1 cells (setting [3]) came to 0.019 µM.

With `Cc1c([C@@H](C)Nc2nnc(C)c3ccc(N4CCC5(CCNCC5)C4=O)cc23)cccc1C(F)(F)F` [Example 10-39, (R)-2-(1-methyl-4-((1-(2-methyl-3-(trifluoromethyl)phenyl)ethyl)amino)phthalazin-6-yl)-2,8-diazaspiro[4.5]decan-1-one hydrochloride salt], the Ki in test [1] came to 0.00149 µM. For the same molecule, in the test with pERK in MKN1 cells (MKN-1), the IC50 came to 0.11 µM.
